Data: ChEMBL document CHEMBL1143877, “Xylose as a carrier for boron containing compounds” (2008)

Experiments:
T-24 [1] = test: Inhibition of tumor growth in human T24 cells xenografted sc dosed SCIDnodCA mouse; type: functional; parameters: scale not given: the % may be the effect or the level left
T-24 [2] = test: Inhibition of tumor growth in human T24 cells xenografted orally dosed SCIDnodCA mouse; type: functional; parameters: scale not given: the % may be the effect or the level left

Which Activity (T-24 [1]) does the source give for `Oc1ccc2cc(O[C@@H]3OC[C@@H](O)[C@H](O)[C@H]3O)ccc2c1` here?
Its Activity is 97%.

And the Activity (T-24 [2])?
Its Activity is 70%.
